The record followed here is ChEMBL document CHEMBL1201862, “PubChem BioAssay data set” (2004).

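Step 1: Grow cells in 96-well plates. Step 2: Expose to compound for 48 hours at 5 concentrations. Step 3: Interpolate endpoints linearly; if unreached, use highest concentration. GI50 is the concentration that inhibits growth by half.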 Calls of active or inactive are those of the source. No stated cut-off is given here; in the data, active = GI50 up to about 1.1 µM and inactive = higher. Some results are limits rather than exact numbers.

Among the test systems are K562; HL-60; A549; RXF 393; EKVX; OVCAR-5; SF-268; NCI-H226; OVCAR-3; NCI-H460; SK-MEL-2; 786-0; M14; TK-10; SW-620; DU-145; CCRF-CEM; OVCAR-4; HOP-62; SK-MEL-28.
Common to all, as to experiment: inhibition of tumour cell growth, NCI panel, 48 h

Take `CC[N+]1(C)CCC(O)(c2ccc(C)cc2)C(C(=O)c2ccc(C)cc2)C1` (centres undefined): the GI50 in the experiment with K562 was 19.6 µM (inactive); in the experiment with HL-60, 56.8 µM (inactive); in the experiment on A549, > 100 µM (inactive); with RXF 393 it was 35.4 µM (inactive); in the experiment on EKVX, > 100 µM (inactive); with OVCAR-5 it was 31 µM (inactive). For the same compound, the GI50 was 34.8 µM (inactive) in the experiment with SF-268; > 100 µM (inactive) with NCI-H226; 21.7 µM (inactive) with OVCAR-3; > 100 µM (inactive) in the experiment with NCI-H460; > 100 µM (inactive) with SK-MEL-2; 20.1 µM (inactive) in the experiment with 786-0. The GI50 was 44.8 µM (inactive) in the experiment on M14; 20.2 µM (inactive) with TK-10; 20.6 µM (inactive) with SW-620; > 100 µM (inactive) in the experiment on DU-145; 22 µM (inactive) in the experiment on CCRF-CEM; 34.4 µM (inactive) with OVCAR-4. The GI50 in the experiment with HOP-62 was > 100 µM (inactive).
On to `CC(C)(C)c1cc(C2NC(=O)NC2=O)cc(C(C)(C)C)c1O` (centres undefined), for which the GI50 is 33.9 µM (inactive) with K562; 96.8 µM (inactive) with A549; 33.3 µM (inactive) in the experiment on RXF 393; > 100 µM (inactive) in the experiment on EKVX; > 100 µM (inactive) with OVCAR-5; 64.6 µM (inactive) with SF-268. Besides, the GI50 in the experiment on NCI-H226 is > 100 µM (inactive); in the experiment on OVCAR-3, 34.1 µM (inactive); with SK-MEL-2, > 100 µM (inactive); with 786-0, > 10 µM (inactive); in the experiment with M14 it was > 100 µM (inactive); in the experiment with TK-10 it was 29 µM (inactive). The GI50 in the experiment on SW-620 is 53.6 µM (inactive); in the experiment on SK-MEL-28 it was 31.7 µM (inactive); in the experiment on DU-145 it was > 100 µM (inactive); in the experiment on CCRF-CEM it was 26.1 µM (inactive); in the experiment with OVCAR-4 it was > 100 µM (inactive); in the experiment on HOP-62 it was > 100 µM (inactive).
`COc1ccc2c(c1)[n+]([O-])c1cc(C#N)ccc1[n+]2[O-]`: the GI50 in the experiment on K562 is 6.76 µM (inactive); in the experiment on HL-60, 4.63 µM (inactive); in the experiment with A549, 0.378 µM (active); in the experiment with RXF 393 it was 47.2 µM (inactive); with EKVX, 24 µM (inactive); in the experiment on OVCAR-5, 15.2 µM (inactive). For the same compound, the GI50 with SF-268 was 13.3 µM (inactive); in the experiment with NCI-H226 it was 3.78 µM (inactive); with OVCAR-3 it was 5.83 µM (inactive); in the experiment with NCI-H460 it was 0.547 µM (active); in the experiment with SK-MEL-2, 4.27 µM (inactive); in the experiment on 786-0, 13.6 µM (inactive). Moreover, the GI50 in the experiment with M14 was 0.33 µM (active); with TK-10, 3.21 µM (inactive); in the experiment with SW-620, 4.34 µM (inactive); with SK-MEL-28, 12.9 µM (inactive); with DU-145 it was 1.1 µM (active); in the experiment with OVCAR-4 it was 12.4 µM (inactive). In addition, in the experiment on HOP-62, the GI50 was 2.11 µM (inactive).
As for `O=c1[nH]c(=O)n(C2CC(O)C(CO)O2)c2nc3ccc4ccccc4c3nc12` (centres undefined), the GI50 in the experiment with K562 was 45.2 µM (inactive); with A549, > 100 µM (inactive); in the experiment on RXF 393, 56.6 µM (inactive); in the experiment with EKVX it was 72.4 µM (inactive); with OVCAR-5, > 100 µM (inactive); with SF-268, 55.8 µM (inactive). Also, the GI50 was 17.8 µM (inactive) with NCI-H226; > 100 µM (inactive) in the experiment with OVCAR-3; 21.3 µM (inactive) with NCI-H460; 95.5 µM (inactive) in the experiment on SK-MEL-2; 74.3 µM (inactive) in the experiment with 786-0; > 100 µM (inactive) in the experiment on M14. Besides, the GI50 in the experiment on TK-10 was > 100 µM (inactive); in the experiment with SW-620 it was 99.8 µM (inactive); with SK-MEL-28, 94.2 µM (inactive); in the experiment on DU-145 it was > 100 µM (inactive); in the experiment on CCRF-CEM, 34.2 µM (inactive); in the experiment with OVCAR-4 it was 67.9 µM (inactive). In the experiment on HOP-62, the GI50 is 32.4 µM (inactive).
Consider `N#CC(NCCc1ccccc1)c1ccc(C(C#N)NCCc2ccccc2)cc1` (centres undefined), for which the GI50 with K562 is 24.2 µM (inactive); with HL-60 it was 14.6 µM (inactive); in the experiment with A549, > 100 µM (inactive); with RXF 393, > 100 µM (inactive); in the experiment on EKVX, > 100 µM (inactive); in the experiment on OVCAR-5 it was > 100 µM (inactive). For the same compound, the GI50 in the experiment on SF-268 is 69.3 µM (inactive); with NCI-H226, > 100 µM (inactive); with OVCAR-3 it was > 100 µM (inactive); with NCI-H460 it was > 100 µM (inactive); in the experiment on SK-MEL-2 it was > 100 µM (inactive); in the experiment on 786-0, 72.4 µM (inactive). The GI50 with M14 is 70.6 µM (inactive); in the experiment on TK-10, > 100 µM (inactive); in the experiment on SW-620, 32.8 µM (inactive); in the experiment on SK-MEL-28, 48.5 µM (inactive); with DU-145, > 100 µM (inactive); in the experiment with CCRF-CEM, 17.9 µM (inactive). The GI50 in the experiment with OVCAR-4 was > 100 µM (inactive).
In the case of `CSC1=C(C(=O)Nc2ccccc2)C(N)=NC1=O`, the GI50 in the experiment with K562 was > 100 µM (inactive); in the experiment on HL-60 it was > 100 µM (inactive); in the experiment on A549, > 100 µM (inactive); with RXF 393, 79.3 µM (inactive); in the experiment on EKVX, 77.1 µM (inactive); in the experiment on SF-268 it was > 100 µM (inactive). For the same compound, the GI50 with NCI-H226, in the experiment on NCI-H460, with SK-MEL-2, in the experiment on 786-0, in the experiment with TK-10 and in the experiment on SW-620 was > 100 µM (inactive) in each case. Moreover, the GI50 with SK-MEL-28, with DU-145, in the experiment with CCRF-CEM and in the experiment with OVCAR-4 was > 100 µM (inactive) throughout.
`N#C/C(=C/n1c(=S)[nH]c2ccccc21)C(N)=O`: the GI50 in the experiment on K562 is > 100 µM (inactive); with HL-60, 16.7 µM (inactive); with A549, > 100 µM (inactive); with RXF 393 it was > 100 µM (inactive); in the experiment on EKVX it was > 100 µM (inactive); in the experiment on OVCAR-5, > 100 µM (inactive). For the same compound, the GI50 with SF-268, in the experiment on NCI-H226, in the experiment on OVCAR-3, in the experiment on NCI-H460, in the experiment on SK-MEL-2 and in the experiment on 786-0 was > 100 µM (inactive) throughout. Besides, the GI50 with M14, in the experiment on SW-620, in the experiment with SK-MEL-28, in the experiment on DU-145, in the experiment on CCRF-CEM and in the experiment on OVCAR-4 was > 100 µM (inactive) each time. For the same compound, the GI50 in the experiment on HOP-62 was > 100 µM (inactive).
For `O=C(/C=C/c1ccc(O)c(O)c1)NC(CO)C(=O)O` (centres undefined), the GI50 in the experiment on K562, with A549, with RXF 393, in the experiment with EKVX, with OVCAR-5 and in the experiment with SF-268 was > 100 µM (inactive) each time. The GI50 in the experiment on NCI-H226, with OVCAR-3, in the experiment on NCI-H460, with SK-MEL-2, with 786-0 and with M14 was > 100 µM (inactive) each time. For the same compound, the GI50 in the experiment on TK-10, with SW-620, with SK-MEL-28, in the experiment with DU-145, in the experiment with CCRF-CEM and in the experiment with OVCAR-4 was > 100 µM (inactive) throughout. Also, the GI50 with HOP-62 was > 100 µM (inactive).
In the case of `COc1cccc([C@@H]2C/C(=N\NC(=O)C(=O)N[C@@H](C)c3ccccc3)c3ccccc3N2)c1`, the GI50 with K562 is 32.1 µM (inactive); in the experiment with A549, 46.1 µM (inactive); in the experiment on RXF 393, 35.3 µM (inactive); in the experiment on EKVX it was 61.4 µM (inactive); in the experiment with OVCAR-5, > 100 µM (inactive); with SF-268, 71 µM (inactive). Besides, the GI50 with NCI-H226 was > 100 µM (inactive); with OVCAR-3 it was > 100 µM (inactive); with SK-MEL-2, > 100 µM (inactive); with 786-0 it was 44.6 µM (inactive); with M14, > 100 µM (inactive); in the experiment on TK-10 it was > 100 µM (inactive). The GI50 with SW-620 is 89.5 µM (inactive); with SK-MEL-28, > 100 µM (inactive); with DU-145, > 100 µM (inactive); in the experiment with CCRF-CEM, > 100 µM (inactive); in the experiment on OVCAR-4 it was 34.8 µM (inactive); in the experiment on HOP-62, 76.6 µM (inactive).
With `Fc1ccc(-c2sc(-c3cccs3)cc2Cc2cccs2)cc1`, the GI50 in the experiment on K562 is > 100 µM (inactive); in the experiment with HL-60, > 100 µM (inactive); in the experiment on A549, > 100 µM (inactive); in the experiment on RXF 393, 50.6 µM (inactive); with EKVX it was > 100 µM (inactive); with OVCAR-5, > 100 µM (inactive). In addition, the GI50 in the experiment on SF-268, in the experiment on NCI-H226, with OVCAR-3, with NCI-H460, with SK-MEL-2 and in the experiment on 786-0 was > 100 µM (inactive) throughout. Also, the GI50 is > 100 µM (inactive) in the experiment on M14; > 100 µM (inactive) in the experiment with TK-10; > 100 µM (inactive) in the experiment on SW-620; > 100 µM (inactive) in the experiment on SK-MEL-28; > 100 µM (inactive) with DU-145; 91 µM (inactive) in the experiment on CCRF-CEM. Besides, the GI50 in the experiment on OVCAR-4 is > 100 µM (inactive).
On to `COc1cccc(/C=C\c2ccc(O)cc2)c1`, for which the GI50 with K562 was 8.77 µM (inactive); in the experiment on HL-60, 0.151 µM (active); in the experiment with A549, 16.9 µM (inactive); in the experiment on RXF 393 it was 19.5 µM (inactive); with EKVX, 30.2 µM (inactive); in the experiment with OVCAR-5 it was 62.8 µM (inactive). Moreover, the GI50 in the experiment with SF-268 was 28.2 µM (inactive); in the experiment with NCI-H226 it was 28.2 µM (inactive); in the experiment on OVCAR-3, 16.8 µM (inactive); in the experiment on NCI-H460, 4.1 µM (inactive); in the experiment on SK-MEL-2 it was 25.8 µM (inactive); in the experiment on 786-0, 10.4 µM (inactive). The GI50 with M14 was 17.5 µM (inactive); in the experiment with TK-10, 52.4 µM (inactive); in the experiment on SW-620, 15.2 µM (inactive); in the experiment with SK-MEL-28 it was 40.1 µM (inactive); in the experiment with DU-145, 13.1 µM (inactive); in the experiment with OVCAR-4 it was 23.7 µM (inactive). For the same compound, the GI50 in the experiment on HOP-62 is 34.6 µM (inactive).
